# Results taken from patent publication US8507409B2, “Synergistic combination of a glyphosate compound and DMITS” (Dow Global Technologies LLC, priority 2010, dated 2013).
# Experiments:
# Assay type in all cases: cell-based
# [1] = system: Chlorella sp., Chlorella kessleri, and Nostoc commune; assay: Algal efficacy, dry paint film (Modified ASTM 5589), Cs + Ck + Nc pool; details: Ch-No; for Total conc in pppm: minimum inhibitory concentration chosen for SI calculation, total actives in paint
# Method: (§1) Each sample was tested in duplicate.
# (§2) In this synergy study, three pool of mixed algae were prepared as the test inoculum, Gloeocapsa sp. and Oscillatoria sp. a mix of cyanobacteria grown on BG-11 media; Chlorella sp., Chlorella kessleri, and Nostoc commune are unicellular chlorphytes that were mixed and grown on Bold media; Trentepohlia aurea, Tretepohlia odorata, and Calotrix parientina are filamentous algae that were mixed and grown on Bold media.
# (§3) The plates were incubated at room temp (25° C.-26° C.) with cyclic exposure to light (OTT-Lite model # OTL4012P, 40 Watt, 26KLumen) and dark phases, for a period of four weeks. The total area covered was evaluated at the end of each week according to percent area covered in 5% increments.
# (§4) The SI is calculated based on F. C.
# (§5) SI value of <1 in the formula indicates a synergism of the blended biocides exists.
# (§6) NE=no end point at the concentration tested that will meet the percent inhibition criteria set in each SI calculation.
# [2] = system: Trentepohlia aurea, Tretepohlia odorata, and Calotrix parientina; assay: Algal efficacy, dry paint film (Modified ASTM 5589), Cp + To + Ta pool; details: Cal-Tre; for Total conc in pppm: minimum inhibitory concentration chosen for SI calculation, NE=no end point
# Method: as §1, §2, §3, §4, §5, §6
# [3] = system: Gloeocapsa sp. and Oscillatoria sp.; assay: Algal efficacy, dry paint film (Modified ASTM 5589), Gs + Os pool; details: Os-Gl; for Total conc in pppm: minimum inhibitory concentration chosen for SI calculation, total actives in paint
# Method: as §1, §2, §3, §4, §5, §6
# [4] = system: Aspergillus niger mixed with Penicillium funiculosum; assay: Fungal efficacy, dry paint film (Modified ASTM 5590), An + Pf pool; details: for Total conc in pppm: minimum inhibitory concentration chosen for SI calculation, total actives in paint
# Method: as §1, §4, §5, §6
# [5] = at the total conc listed for the same ratio
Molecule,"% Inhibition [1, 5] [%]",Total conc in pppm [1] [pppm],"% Inhibition [2, 5] [%]",Total conc in pppm [2] [pppm],"% Inhibition [3, 5] [%]",Total conc in pppm [3] [pppm],"% Inhibition [4, 5] [%]",Total conc in pppm [4] [pppm]
"Cc1ccc(S(=O)(=O)C(I)I)cc1 [DMITS, diiodomethyl-p-tolylsulfone]",80,2475,20,3300,20,3300,80,825
zinc glyphosate,–,412.5,–,412.5,–,412.5,–,412.5
